We go through eight molecules from paper PMC4887995, “Small molecule dual-inhibitors of TRPV4 and TRPA1 for attenuation of inflammation and pain” (Scientific Reports, 2016).

Experiment [1] addresses TRPV4 (Rattus norvegicus, UniProt Q9ERZ8). Conditions: for average peak ∆Ca++ concentration: ≈100 cells, vehicle control 1156.
Description: We assessed TRPV4-inhibitory potency of these synthetic compounds in a Ca^++ imaging assay in neuronal 2a (N2a) permanent tissue culture cells with directed expression of mammalian (rat) TRPV4. […] For first round assessment, all TRPV4-inhibitory compounds were used at 5 μM (Fig. 2A).
(A) Ca^++ imaging screening of all compounds in N2A cells with directed expression of TRPV4 (rat). […] The number on each bar corresponds to average peak ∆Ca^++ concentrations in ≈100 cells. Inset: micrographs of pseudo-colored cells before and after activation with 5nM GSK101, in addition note the corresponding time course of the averaged Ca^++ signal (fura-2 Ca^++ imaging). […] Plot generated from averaged peak ∆Ca^++ concentration of ≥75 cells per data-point.
TRPV4-eGFP from rat was used, previously found to respond to stimulation with GSK101 and hypotonicity in similar manner as native, non-fused TRPV4.
The subject of experiment [2] is formalin-evoked trigeminal irritant pain (TRPA1 contribution). Description: Trigeminal formalin irritant pain model, Trpv4-/- mice. To be noted: 25 mg/kg i.p. The format is in vivo, mouse. The method, then: Figure 7 16-8 and 16-19 effectively attenuate formalin-evoked trigeminal irritant pain. (A) Time-course of nocifensive behavior in WT mice following whisker-pad injection of 4% formalin. The mice were pre-injected (i.p., 10 mg/kg; 15 min before formalin) with GSK205, 16-8 or 16-19. Note effective reduction of nocifensive behavior in the late “neural” phase by compounds 16-8, 16-19, not by GSK205. (B) Cumulative response binned into 3 phases: acute phase (0–5 min), interphase (5–15 min), and late “neural” phase (15–45 min). […] (C) As in (A), but also including Trpv4^−/− mice. Compounds were applied i.p. 15 min before formalin challenge, at 10 mg/kg except established TRPA1 blocker, A967079 (25 mg/kg). Previously-established attenuated nocifensive behavior in early and late phase in Trpv4^−/− mice was recapped, which was reduced further by TRPA1 blocker, A967079. (D) As in (B), plus inclusion of Trpv4^−/− mice. Robust effects of TRPA1-blocker, A967079, were mimicked equi-potently by 16-8 and 16-19 for early phase, and by 16-8 for late phase, partially by 16-19 for late phase. (A,C) show averaged behavioral metrics per time-point, bars in (B,D) represent mean ± SEM; for (D) ^*P < 0.05; ^#P < 0.005, one-way ANOVA; for all panels n = 5–8 mice/group. […] We observed significant residual irritant-pain behavior in all phases of the formalin model in Trpv4^−/− mice, consistent with our previous report[13] (Fig. 7C,D). […] A reference TRPA1-inhibitory compound, A967079, was used at 25 mg/kg body weight as a positive control to inhibit TRPA1, based on a previous report. Reduction of pain behavior in Trpv4^−/− mice was striking, more than 50% in the late neural phase. […] We conclude that compound 16-8 also functions as a potent TRPA1-inhibitor in an in-vivo irritant pain model specifically designed to assess the contribution of TRPA1 to trigeminal irritant pain, and at least as potent as an established reference TRPA1-antagonistic compound. Implementation of this model was conducted as described previously. Video-taped nocifensive behavior was assessed by investigators blinded to genotype and treatment.

In experiment [3] the test system is formalin-evoked trigeminal irritant pain. As to the kind of experiment: Trigeminal formalin irritant pain model, WT mice. The format is in vivo, mouse. To be noted: 10 mg/kg i.p., 15 min before 4% formalin, 15–45 min. The protocol: Figure 7 16-8 and 16-19 effectively attenuate formalin-evoked trigeminal irritant pain. (A) Time-course of nocifensive behavior in WT mice following whisker-pad injection of 4% formalin. The mice were pre-injected (i.p., 10 mg/kg; 15 min before formalin) with GSK205, 16-8 or 16-19. Note effective reduction of nocifensive behavior in the late “neural” phase by compounds 16-8, 16-19, not by GSK205. (B) Cumulative response binned into 3 phases: acute phase (0–5 min), interphase (5–15 min), and late “neural” phase (15–45 min). […] (C) As in (A), but also including Trpv4^−/− mice. Compounds were applied i.p. 15 min before formalin challenge, at 10 mg/kg except established TRPA1 blocker, A967079 (25 mg/kg). Previously-established attenuated nocifensive behavior in early and late phase in Trpv4^−/− mice was recapped, which was reduced further by TRPA1 blocker, A967079. (D) As in (B), plus inclusion of Trpv4^−/− mice. Robust effects of TRPA1-blocker, A967079, were mimicked equi-potently by 16-8 and 16-19 for early phase, and by 16-8 for late phase, partially by 16-19 for late phase. (A,C) show averaged behavioral metrics per time-point, bars in (B,D) represent mean ± SEM; for (D) ^*P < 0.05; ^#P < 0.005, one-way ANOVA; for all panels n = 5–8 mice/group. Implementation of this model was conducted as described previously. Video-taped nocifensive behavior was assessed by investigators blinded to genotype and treatment.

For experiment [4], the target named is TRPA1 (Mus musculus, UniProt Q8BLA8).
Sequence of TRPA1 (Q8BLA8 whole entry): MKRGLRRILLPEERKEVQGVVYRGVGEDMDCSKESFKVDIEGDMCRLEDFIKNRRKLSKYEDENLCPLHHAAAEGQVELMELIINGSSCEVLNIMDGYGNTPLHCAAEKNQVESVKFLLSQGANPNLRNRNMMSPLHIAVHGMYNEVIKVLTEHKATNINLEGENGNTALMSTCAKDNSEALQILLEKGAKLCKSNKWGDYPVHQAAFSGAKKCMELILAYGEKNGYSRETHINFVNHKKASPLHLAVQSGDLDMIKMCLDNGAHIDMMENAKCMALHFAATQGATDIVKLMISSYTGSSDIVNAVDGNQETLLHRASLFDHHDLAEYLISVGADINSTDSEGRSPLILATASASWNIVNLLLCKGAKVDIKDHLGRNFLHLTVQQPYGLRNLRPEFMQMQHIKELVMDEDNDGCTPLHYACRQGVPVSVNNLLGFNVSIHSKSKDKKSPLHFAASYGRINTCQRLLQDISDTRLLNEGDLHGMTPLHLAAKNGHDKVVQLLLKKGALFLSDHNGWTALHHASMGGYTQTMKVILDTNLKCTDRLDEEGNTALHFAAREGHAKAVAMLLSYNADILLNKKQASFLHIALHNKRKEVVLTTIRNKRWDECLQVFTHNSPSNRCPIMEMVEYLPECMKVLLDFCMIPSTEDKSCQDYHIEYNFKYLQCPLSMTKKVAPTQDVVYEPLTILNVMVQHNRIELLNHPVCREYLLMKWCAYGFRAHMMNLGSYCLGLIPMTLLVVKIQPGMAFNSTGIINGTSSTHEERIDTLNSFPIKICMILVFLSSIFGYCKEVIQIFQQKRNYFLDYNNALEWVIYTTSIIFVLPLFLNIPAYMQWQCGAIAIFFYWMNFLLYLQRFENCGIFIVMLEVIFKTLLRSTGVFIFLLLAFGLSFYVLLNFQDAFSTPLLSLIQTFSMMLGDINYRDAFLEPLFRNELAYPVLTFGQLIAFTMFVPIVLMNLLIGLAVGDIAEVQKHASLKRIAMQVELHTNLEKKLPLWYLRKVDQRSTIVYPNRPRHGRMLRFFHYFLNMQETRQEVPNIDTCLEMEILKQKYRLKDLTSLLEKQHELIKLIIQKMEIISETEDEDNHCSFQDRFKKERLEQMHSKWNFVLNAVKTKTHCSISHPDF
Description: Mean±SEM is shown, ≥100 cells per condition. […] Plot generated from averaged peak ∆Ca^++ concentration of ≥75 cells per data-point.
N2a cells were used for directed expression of TRP ion channels as described previously[13]. […] All other channels were native channels from mouse, eGFP was co-transfected. […] Ca^++ imaging was performed as described previously[13][14][34].
To visualize dose-response relationships, Hill plots were conducted using the Igor Pro software program, which derived the plots based on the following equation:
Experiment [5] relates to formalin-evoked trigeminal irritant pain. The arrangement: method as in PMID 25281928. To be noted: intradermal injection; cited from earlier work.

“Also recorded” adds a separate entry of the source.

Sequence of TRPV4 (Q9ERZ8 whole entry): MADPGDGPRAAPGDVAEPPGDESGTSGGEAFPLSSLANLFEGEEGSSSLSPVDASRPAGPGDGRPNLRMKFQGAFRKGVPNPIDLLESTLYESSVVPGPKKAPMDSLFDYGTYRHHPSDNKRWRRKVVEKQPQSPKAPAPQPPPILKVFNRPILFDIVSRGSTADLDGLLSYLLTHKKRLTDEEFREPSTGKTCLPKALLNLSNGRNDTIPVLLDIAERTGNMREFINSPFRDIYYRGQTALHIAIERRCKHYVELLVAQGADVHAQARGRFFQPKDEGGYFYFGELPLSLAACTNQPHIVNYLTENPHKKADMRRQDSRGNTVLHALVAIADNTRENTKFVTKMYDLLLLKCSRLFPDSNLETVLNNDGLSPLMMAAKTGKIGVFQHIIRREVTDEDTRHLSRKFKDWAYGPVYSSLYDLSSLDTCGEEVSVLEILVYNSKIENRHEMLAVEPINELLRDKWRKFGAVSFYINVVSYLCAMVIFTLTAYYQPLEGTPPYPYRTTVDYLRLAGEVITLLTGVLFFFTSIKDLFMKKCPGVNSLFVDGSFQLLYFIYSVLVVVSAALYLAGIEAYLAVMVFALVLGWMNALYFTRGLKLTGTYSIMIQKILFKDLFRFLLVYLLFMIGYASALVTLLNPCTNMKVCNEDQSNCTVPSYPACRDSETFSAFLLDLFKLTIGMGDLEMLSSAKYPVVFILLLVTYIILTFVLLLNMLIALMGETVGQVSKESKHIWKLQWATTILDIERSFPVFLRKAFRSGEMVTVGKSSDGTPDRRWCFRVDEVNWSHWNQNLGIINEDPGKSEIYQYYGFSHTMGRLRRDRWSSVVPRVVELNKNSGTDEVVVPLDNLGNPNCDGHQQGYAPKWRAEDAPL

Consider `CN(CCc1ccc(Nc2nc(-c3cccnc3)cs2)cc1)CCc1cccnc1` [16-12], for which the “average peak ∆Ca++ concentration” value in experiment [1] (5 μM inhibitor, GSK101 5 nM) was found to be 39.5 nM.

With `CN(CCc1ccc(Nc2nc(-c3ccncc3)cs2)cc1)Cc1ccccc1` [16-13], the “average peak ∆Ca++ concentration” value in experiment [1] (5 μM inhibitor, GSK101 5 nM) is 52 nM.

For `CCC(=N\O)/C(C)=C/c1ccc(F)cc1` [A967079, reference compound], the “reduction of pain behavior, late neural phase” value in experiment [2] is on record as “more than 50%”.

As for `CN(CCc1ccc(Nc2nc(-c3ccccn3)cs2)cc1)Cc1ccccc1` [16-14], in experiment [1] (5 μM inhibitor, GSK101 5 nM), the “average peak ∆Ca++ concentration” value was 558 nM.

Consider `CN(CCc1ccc(Nc2nc(-c3cccnc3)cs2)cc1)c1ccccc1` [16-16], for which the “average peak ∆Ca++ concentration” value in experiment [1] (5 μM inhibitor, GSK101 5 nM) is reported as 263 nM.

By IC50 is commonly meant the concentration that gives 50% inhibition. A low value points to greater potency. For the molecule `CN(CCc1ccc(Nc2nc(-c3cccnc3)cs2)cc1)Cc1ccccc1` [GSK205, reference compound], the concentration for half-maximal inhibition (IC50) in experiment [1] is 4.19 ± 0.71 µM; in experiment [4], 5.56 µM. The “average peak ∆Ca++ concentration” value in experiment [1] (5 μM inhibitor, GSK101 5 nM) is 650 nM. Further, the “pain behavior, delayed (late neural) phase” value in experiment [3] is on record as “no significant effect”. In addition, the “attenuation of trigeminal formalin-evoked pain behavior” value in experiment [5] was “effective attenuation; also recorded: effective previously in a dose-dependent manner”.

`CN(CCc1ccc(Nc2ncc(-c3cccnc3)s2)cc1)Cc1ccccc1` [16-43C]: in experiment [1] (5 μM inhibitor, GSK101 5 nM), the “inhibition of TRPV4-mediated Ca++ influx” value is reported as “did not inhibit Ca^++ influx” and the “average peak ∆Ca++ concentration” value was 1210 nM.

Take `CCN(CCc1ccc(Nc2nc(-c3cccnc3)cs2)cc1)Cc1ccccc1` [16-18]: the “average peak ∆Ca++ concentration” value in experiment [1] (5 μM inhibitor, GSK101 5 nM) is on record as 14 nM. In experiment [1] (from TRPV4 IC50 values), the “increased potency over GSK205” value is given as approximately 5 fold. In experiment [4], this molecule showed a concentration for half-maximal inhibition (IC50) of more than 25 µM. Moreover, the “activity vs TRPA1” value in experiment [4] (100 μM mustard oil, N2a cells) is listed as “no significant activity”.
